Values quoted from earlier work, collected in patent US5413915A (priority 1991, dated 1995).
Marks after values point to notes of the source that are not given here.

Columns and labels:
[1] = in vivo; cited from earlier work
[2] = in vivo; cited from earlier work; remark: listed apart in the source
Salmonella typhimurium = details: cited from earlier work

Row | Compound | Tumorigen Activity [1] | Teratogen Activity [2] | Mutagenicity (Salmonella typhimurium) | Tumorigen Activity, assignment based on IARC reports [1] | Tumorigen Activity, assignment based on NCI/NTP carcinogenesis bioassay results [1] | Carcinogenic Status [1]
1 | BrCCBr [1,2-Dibromoethane] | + | - | + |  |  | 
2 | CCCCO [1-Butanol] | - | - | - |  |  | 
3 | O=C(O)COc1ccc(Cl)cc1Cl [2,4-D] |  | + | - | + | - | 
4 | CC(C)O [2-Propanol] | - | - | - | + |  | 
5 | O=c1cc(-c2ccccc2)oc2ccc3ccccc3c12 [5,6-Naphthoflavone] | - | - | - |  |  | 
6 | CCc1cccc(CC)c1N(COC)C(=O)CCl [Alachlor (ind.), Alachlor] | - | - | - |  |  | 
7 | O=C1O[C@H]([C@@H](O)CO)C(O)=C1O [Ascorbate] | - | + | + |  |  | Negative
8 | CCC1(CC)C(=O)NC(=O)NC1=O [Barbital] | - | - | - |  |  | 
9 | ClC(Cl)Cl [CHCl3] | + | + | + |  |  | 
10 | S=C=S [CS2] | - | + | + |  |  | 
11 | CNC(=O)Oc1cccc2ccccc12 [Carbaryl (ind.), Carbaryl] | + | + |  |  |  | 
12 | CNC(=O)Oc1cccc2c1OC(C)(C)C2 [Carbofuran (ind.), Carbofuran] | - | - | + |  |  | 
13 | O=C(O)CC(O)(CC(=O)O)C(=O)O [Citrate] | - | - |  |  |  | 
14 | CCNc1nc(Cl)nc(NC(C)(C)C#N)n1 [Cyanazine (ind.), Cyanazine] | - | - | + |  |  | 
15 | COc1c(Cl)ccc(Cl)c1C(=O)O [Dicamba (ind.), Dicamba] | - | - | + |  |  | 
16 | ClC1=C(Cl)[C@]2(Cl)[C@@H]3[C@@H]4C[C@@H]([C@H]5O[C@@H]45)[C@@H]3[C@@]1(Cl)C2(Cl)Cl [Dieldrin] | +^e | + | + |  |  | 
17 | CN(C)C=O [Dimethylformamide] | - | - | + |  |  | 
18 | C[S+](C)[O-] [Dimethylsulfoxide] | - | + | - |  |  | 
19 | O=C(O)CN(CCN(CC(=O)O)CC(=O)O)CC(=O)O [EDTA] | - | + | - |  |  | 
20 | CCO [Ethanol] | - | + | - |  |  | 
21 | CCOC(C)=O [Ethyl Acetate] | - | - | - |  |  | 
22 | OCC(O)CO [Glycerol] | - | - |  |  |  | 
23 | CCOP(=S)(NC(C)C)Oc1ccccc1C(=O)OC(C)C (stereo not shown) [Isofenphos (ind.), Isofenphos] | - | - | - |  |  | 
24 | CCOP(=S)(OCC)Oc1nc(Cl)n(C(C)C)n1 [Isozofos (ind.), Isozofos] | -? | -? | -? |  |  | 
25 | O=S(=O)(O)CCCN1CCOCC1 [MOPS Buffer, morpholinopropanesulfonic acid] | -? | -? | -? |  |  | 
26 | OC[C@@H](O)[C@@H](O)[C@H](O)[C@H](O)CO [Mannitol] | - | - | - |  |  | 
27 | CO [Methanol] | - | + | - |  |  | 

Row | Compound | Tumorigen Activity [1] | Teratogen Activity [2] | Mutagenicity (Salmonella typhimurium) | Tumorigen Activity, assignment based on IARC reports [1] | Tumorigen Activity, assignment based on NCI/NTP carcinogenesis bioassay results [1] | Carcinogenic Status [1]
28 | CNC(=O)ON=C(C)SC [Methomyl (ind.), Methomyl] | - | - | - |  |  | 
29 | C[n+]1ccc(-c2cc[n+](C)cc2)cc1 [Methyl viologen] | + | + | + |  |  | 
30 | CCc1cccc(C)c1N(C(=O)CCl)C(C)COC (stereo not shown) [Metolachlor (ind.), Metolachlor] | - | - | + |  |  | 
31 | CNC(=O)Oc1cc(C)c(N(C)C)c(C)c1 [Mexacarbate (ind.), Mexacarbate] | +^b | - | - |  | - | 
32 | [Cl-].[Na+] [NaCl] | - | - | - |  |  | 
33 | c1ccc2ccccc2c1 [Naphthalene] | +/- | + |  |  |  | 
34 | O=C(O)CN(CC(=O)O)CC(=O)O [Nitrilotriacetate] | + | + | - |  |  | 
35 | O=[O+][O-] [Ozone] | +^b | + | - |  |  | 
36 | C[n+]1ccc(-c2cc[n+](C)cc2)cc1 [Paraquat (ind.), Paraquat] | - | + | + |  |  | 
37 | O=C(O)COc1ccccc1 [Phenoxyacetate] | - | - | - |  |  | 
38 | O=S(=O)(F)Cc1ccccc1 [Phenylmethylsulfonyl fluoride] | - | - | - |  |  | 
39 | CNC(=O)Oc1ccccc1OC(C)C [Propoxur (ind.), Propoxur] | - | - | - |  |  | 
40 | CCNc1nc(Cl)nc(NCC)n1 [Simazine (ind.), Simazine] | +^e | + | - |  |  | 
41 | CCCCCCCCCCCCOS(=O)(=O)[O-].[Na+] [Sodium laurylsulfate] | - | - | - |  |  | 
42 | NC(CO)(CO)CO [TRIS Buffer, tris(hydroxymethyl-)aminomethane] | - | - | - |  |  | 
43 | ClC(Cl)=C(Cl)Cl [Tetrachloroethylene] | + | + | + |  |  | 
44 | O=S(=O)(c1ccc(Cl)cc1)c1cc(Cl)c(Cl)cc1Cl [Tetradifon (ind.), Tetradifon] | - | - | - |  |  | 
45 | Cc1cc(-c2cc(C)c(N)c(C)c2)cc(C)c1N [Tetramethylbenzidine] | - | - | - |  |  | 
46 | Cn1c(=O)c2[nH]cnc2n(C)c1=O [Theophylline] | - | + |  |  |  | 
47 | Cc1ccccc1 [Toluene] | - | + |  |  |  | 
48 | CCN(CC)CC [Triethylamine] | - | - | - |  |  | 
49 | NC(N)=O [Urea] | + | - | - |  |  | 
50 | CCCCCC [n-Hexane] | - | - | - |  |  | 
51 | c1cnc2c(c1)ccc1cccnc12 [o-Phenanthroline] | - | - | - |  |  | 
52 | Oc1ccc(-c2ccccc2)cc1 [p-Hydroxybiphenyl] | + | -? | - |  |  | 
53 | Cyanacrylate [Cyanacrylate (ind.)] | - | - | - |  |  | 
